Data: the supplement of paper PMC10307832

Legend:
Assay in all cases: relative viability (nuclei count vs DMSO), 5 days (fraction); higher = more cells survive
[1] = compound: C=C(c1ccc(C(=O)O)cc1)c1cc2c(cc1C)C(C)(C)CCC2(C)C [Bexarotene] + CC(=O)Nc1cccc(-n2c(=O)n(C3CC3)c(=O)c3c(Nc4ccc(I)cc4F)n(C)c(=O)c(C)c32)c1 [Trametinib] (partner 0.02 µM)
Summary of the method: (§1)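 Lung cancer cell lines in 1536-well plates got either a single drug or a fixed anchor-drug dose together with five library-drug doses (not always all listed) in √10 steps, by pin tool, on the day after seeding. Nuclei were counted after 5 days, and relative viability is the treated-to-vehicle ratio of nuclei counts. Values are medians of duplicate plates.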

[2] = compound: C=C(c1ccc(C(=O)O)cc1)c1cc2c(cc1C)C(C)(C)CCC2(C)C [Bexarotene] + N=C(N)NC(=N)NCCc1ccccc1 [Phenformin] (partner 250 µM)
Summary of the method: as §1

[3] = compound: C=C(c1ccc(C(=O)O)cc1)c1cc2c(cc1C)C(C)(C)CCC2(C)C [Bexarotene] + Nc1nc2[nH]cc(CCc3ccc(C(=O)N[C@@H](CCC(=O)O)C(=O)O)cc3)c2c(=O)[nH]1 [Pemetrexed] (partner 0.2 µM)
Summary of the method: as §1

[4] = compound: C=C(c1ccc(C(=O)O)cc1)c1cc2c(cc1C)C(C)(C)CCC2(C)C [Bexarotene] + CC1(C)CCC(c2ccc(Cl)cc2)=C(CN2CCN(c3ccc(C(=O)NS(=O)(=O)c4ccc(N[C@H](CCN5CCOCC5)CSc5ccccc5)c(S(=O)(=O)C(F)(F)F)c4)cc3)CC2)C1 [Navitoclax] (partner 0.5 µM)
Summary of the method: as §1

Cell Line	relative viability ([1]; first compound 0.08 µM)	relative viability ([1]; first compound 0.253 µM)	relative viability ([1]; first compound 0.8 µM)	relative viability ([1]; first compound 2.53 µM)	relative viability ([1]; first compound 8 µM)	relative viability ([2]; first compound 0.08 µM)	relative viability ([2]; first compound 0.253 µM)	relative viability ([2]; first compound 0.8 µM)	relative viability ([2]; first compound 2.53 µM)	relative viability ([2]; first compound 8 µM)	relative viability ([3]; first compound 0.08 µM)	relative viability ([3]; first compound 0.253 µM)	relative viability ([3]; first compound 0.8 µM)	relative viability ([3]; first compound 2.53 µM)	relative viability ([3]; first compound 8 µM)	relative viability ([4]; first compound 0.08 µM)	relative viability ([4]; first compound 0.253 µM)	relative viability ([4]; first compound 0.8 µM)	relative viability ([4]; first compound 8 µM)	relative viability ([4]; first compound 2.53 µM)
NCI-H441	0.568	0.481	0.669	0.527	0.633	1.03	0.743	0.811	0.864	0.868	0.268	0.319	0.26	0.257	0.249	0.845	0.747	1.02	0.541	
NCI-H1793	0.395	0.4	0.415	0.397	0.408	0.51	0.386	0.36	0.37	0.358	0.972	0.828	0.79	0.845	0.852	0.351	0.556	0.332	0.464	0.35
NCI-H23	0.447	0.435	0.395	0.364	0.347	0.854	0.759	0.694	0.763	0.712	0.948	0.715	0.669	0.626	0.686	1.01	0.96	0.853	0.729	0.923
HARA	0.902	0.895	0.642	0.989	0.602	0.523	0.448	0.375	0.398	0.39	0.292	0.31	0.217	0.248	0.244	1.23	1.27	1.17	0.854	1.07
NCI-H1792	0.677	0.46	0.442	0.493	0.345	0.276	0.214	0.166	0.135	0.119	1.1	0.848	0.487	0.482	0.455	0.588	0.515	0.489	0.579	0.297
NCI-H1703																1.08	1.14	0.915	0.692	0.913
NCI-H1648	0.448	0.483	0.559	0.469	0.529						0.897	0.738	0.676	0.585	0.619					
CAL-12T	0.349	0.286	0.319	0.233	0.319	0.578	0.511	0.572	0.513	0.519	1.15	1.19	1.21	1.13	1.06	1.14	1.26	1.39	1.02	1.13
NCI-H727	0.377	0.362	0.293	0.382	0.292	0.51	0.481	0.574	0.515	0.503						0.467	0.38	0.452	0.405	0.354
NCI-H2085	0.486	0.59	0.4	0.449	0.535	0.759	0.646	0.531	0.678	0.718	0.832	0.808	0.753	0.751	0.74	1.09	1.13	0.961	0.924	0.949
NCI-H1395	1.18	1.03	1.15	0.908	1.1	0.456	0.457	0.412	0.415	0.471	0.885	0.929	0.808	0.9	0.931	1.19	1.11	1.05	1.1	1.07
SW 900	0.635	0.846	0.85	0.81	0.647	0.643	0.64	0.598	0.46	0.572	0.509	0.465	0.456	0.454	0.477					
NCI-H460	0.153	0.155	0.13	0.199	0.177	0.552	0.543	0.494	0.455	0.427	0.062	0.0605	0.058	0.0661	0.0586	1.31	1.18	1.05	0.918	0.993
A549						0.133	0.187	0.157	0.18	0.183						1.18	1.29	1.15	0.938	0.986
IA-LM																0.6	0.785	0.724	0.664	0.603
EKVX	0.291	0.359	0.355	0.372	0.295	0.257	0.263	0.224	0.233	0.233	0.423	0.54	0.355	0.43	0.362	0.906	0.94	0.908	0.966	0.878
ChaGo-K-1	1.02	1.02	0.978	1.05	0.932	0.563	0.496	0.539	0.533	0.536	0.274	0.249	0.251	0.253	0.275	0.98	0.987	1.07	0.991	
NCI-H1755	0.849	0.864	0.834	0.773	0.718	0.717	0.679	0.623	0.601	0.622	0.451	0.458	0.498	0.452	0.425	1.04	1.05	1.02	0.993	0.993
NCI-H2228	0.54	0.641	0.389	0.457	0.417	0.31	0.372	0.276	0.264	0.3	0.36	0.358	0.365	0.212	0.376	0.822	0.71	0.455	0.721	0.931
